Assay results taken from the pKa sets of Baltruschat and Czodrowski (2020).
Where a SMILES comes first, the peptide text is derived from it.

Row | Compound | pKa (acidic group) | pKa (basic group)
1 | O=C1O[C@@H]([C@H](O)[C@@H](O)[C@@H](O)CO)C(O)=C1O | 4.3 | 
2 | O=[N+]([O-])c1ccc(S)c([N+](=O)[O-])c1 | 3.4 | 
3 | CC1=CCN2CC[C@@H](O)[C@@H]12 |  | 9.6
4 | Cc1ccc2nc3ccc(N)cc3nc2c1 |  | 4.8
5 | CC1(C)[C@@H](N)[C@@H]1[NH3+] |  | 5.97
6 | C[Si](C)(C)C#CC(=O)O | 2.21 | 
7 | Cc1cnc2c(c1)cc(C)c1cc(C)cnc12 |  | 5.27
8 | CN1CCCCCCN(C)CCCCCC1 |  | 9.24
9 | CC(=O)C(CCN1CCOCC1)(c1ccccc1)c1ccccc1 |  | 6.83
10 | Cc1[nH]c(C(=O)[O-])c(C(=O)O)[nH+]1 | 4.54 | 
11 | CC1CCNC(C)(C)C1 (stereo not given) |  | 11.1
12 | O=Cc1c(O)cccc1Cl | 8.26 | 
13 | CN1CCCC1c1cncc2[nH]c3ccccc3c12 (stereo not given) |  | 8.02
14 | OCc1nc2cc(Cl)ccc2[nH]1 | 11.5 | 4.63
15 | CC1CCCC(=O)C1=O (stereo not given) | 11.2 | 
16 | COc1nc(N)c2cnn(C)c2n1 |  | 3.66
17 | O=C(CCN1CCCCC1)c1ccccc1 |  | 9.23
18 | Cc1ccccc1/C(=N\CCC[NH+](C)C)c1cccc2ccccc12 |  | 4.14
19 | Nc1cc(C[NH3+])ccc1Cl |  | 3.71
20 | COCCCCNc1ccccc1 |  | 4.6
21 | O=Cc1ccncc1 |  | 4.63
22 | C=CCC1(CC=C)SC(=O)NC1=O | 6.1 | 
23 | O=C1[N-]C(=O)/C(=N/O)C(=O)N1 | 10.1 | 
24 | Nc1ccc(O)cc1 | 10.1 | 5.54

Row | Compound | pKa (acidic group) | pKa (basic group)
25 | COc1ccc(S(N)(=O)=O)cc1 | 9.93 | 
26 | N#Cc1ccc(O[C@H]2O[C@@H](C(=O)O)[C@H](O)[C@@H](O)[C@@H]2O)cc1 | 3.22 | 
27 | Cc1noc(C)c1C |  | -1
28 | COc1cccc(=O)c(O)c1 | 7.24 | 
29 | CC(=O)OC(C)CN(C)C (stereo not given) |  | 8.31
30 | O=c1cnn([C@H]2O[C@@H](CO)[C@H](O)[C@@H]2O)c(=O)[nH]1 | 6.6 | 
31 | CC(=O)N(N)C1CCN(C)CC1 |  | 8.7
32 | CN(C)c1cccc(Cl)c1 |  | 3.83
33 | Cc1c(O)c(=O)n(-c2ccccc2)n1C |  | -0.22
34 | Cn1ccnc1N=[N+]=[N-] |  | 4.05
35 | N#CCCN(CCC#N)c1nnn[nH]1 | 4.85 | 
36 | O=[N+]([O-])c1cccc(O)c1 | 8.31 | 
37 | Ic1nnn[nH]1 | 2.85 | 
38 | c1nc(NC2CCCCC2)c2ncn(C3CCCCC3)c2n1 |  | 4.4
39 | O=C([O-])CCS | 10.3 | 
40 | COCC1=C(C(=O)O)CC1 | 4.31 | 
41 | Cc1cc(-c2ccccc2)nn2cc(CN3CCOCC3)nc12 |  | 6.3
42 | CC(=O)c1cc(C)c(C)cc1O | 11.6 | 
43 | Cc1ccc([C@H]2C[C@@H]2C(=O)O)cc1 | 4.6 | 
44 | COc1ccc2c3c1O[C@H]1CCC[C@H]4[C@@H](C2)N(C)CC[C@]314 |  | 8.83
45 | NCCCCOc1c2ccccc2cc2ccccc12 |  | 9.94
46 | CCOC(=O)CCN(C)C |  | 8.6
47 | CCN(CC)CCCC#N |  | 9.29
48 | O=C1c2ccccc2C(=O)C1Cc1ccccc1 | 5.9 | 

Row | Compound | pKa (acidic group) | pKa (basic group)
49 | CO[C@H]1C=CC2=CCN3CCC(CO)=C(CCO)[C@]23C1 |  | 7.8
50 | CC(C(=O)O)c1ccc(-c2ccccc2)c(F)c1 (stereo not given) | 4.22 | 
51 | Clc1ccc(-c2cnc(-c3ccccc3)o2)cc1 |  | 0.7
52 | COc1ccc(-c2ncc(-c3ccc(C)cc3)o2)cc1 |  | 1.34
53 | Cc1nc2ccccc2n1C |  | 6.55
54 | [O-]c1ccc(-c2ccc(O)cc2)cc1 | 14.1 | 
55 | [NH3+][C@H]1CCC[C@H](C(=O)O)C1 | 3.85 | 
56 | CC(C)CC(N)C(=O)NC(CC(N)=O)C(=O)O (stereo not drawn) (H-Leu-Asn-OH; configuration not given here) | 8.23 | 
57 | [S-]c1cccc2cccnc12 |  | 8.29
58 | CCCc1ncc[nH]1 |  | 8.02
59 | CCCCNC |  | 10.8
60 | COc1ccnc2ccccc12 |  | 6.45
61 | Cc1ccc(C(=O)C(=O)O)cc1 | 1.52 | 
62 | Cc1cc(O)cc(C)c1[N+](=O)[O-] | 8.25 | 
63 | CN(C)/C=N/c1cccc(O)c1 | 10.2 | 7.88
64 | NCCCCCCCCCCC(=O)[O-] |  | 11
65 | N#CC(C#N)=NNc1cccc(Cl)c1 | 6 | -0.78
66 | CC(C)[NH+](CCC(c1ccccc1)c1ccccn1)C(C)C (stereo not given) |  | 3.2
67 | CN(C)CCCN |  | 10
68 | O=[N+]([O-])c1[nH]cnc1Cl | 5.9 | -1.3
69 | CCN(CC)CCSC(C)C |  | 9.32
70 | Cc1cc(=O)n(C)cn1 |  | 2.1
71 | Cc1cc(C)c(O)c([N+](=O)[O-])c1 | 7.98 | 
72 | O=C(O)COc1ccccc1[N+](=O)[O-] | 2.9 | 

Row | Compound | pKa (acidic group) | pKa (basic group)
73 | CC(=O)NC(CS)C(=O)[O-] (stereo not given) | 9.62 | 
74 | CC(C)NC[Si](C)(C)C |  | 10.8
75 | C=CCN(CC1CO1)CC1CO1 (stereo not given) |  | 6.16
76 | O=S(=O)(Nc1cccc(C(F)(F)F)c1)c1ccccc1 | 7.63 | 
77 | C[n+]1ccc2ccccc2c1S | -2.13 | 
78 | C(=C\C=N\c1ccccc1)/C=C/Nc1ccccc1 |  | 8.52
79 | Cc1ccnnc1C |  | 4.1
80 | Cc1cc([O-])nc([O-])[n+]1C |  | 10.1
81 | Nc1cccnc1N |  | 6.84
82 | CC(C)CN(CC(C)C)C(=S)S | 3.4 | 
83 | CCC(C)[C@H]([NH3+])C(=O)O (stereo not given in full) | 2.26 | 
84 | N#CC(c1ccccc1)c1ccc([N+](=O)[O-])cc1 (stereo not given) | 10.9 | 
85 | C/C(=N/O)c1ccccc1 | 11.5 | 
86 | Nc1nc(N)c2cn[nH]c2n1 |  | 5.58
87 | CC1=CN(C)CC1C (stereo not given) |  | 9.6
88 | NCCCCCC#CC#CCCC(=O)[O-] |  | 10.7
89 | O=C1CCC[C@H]2[C@H]3C[C@@H](CN12)[C@H]1CCCCN1C3 |  | 9.2
90 | C[N+](C)(C)CCCc1cccc(O)c1 | 9.64 | 
91 | C1C[NH2+]CCSCCN1 |  | 4.16
92 | N[C@@H](Cc1c[nH]cn1)C(=O)NCC(=O)[O-] (H-His-Gly-OH) |  | 7.82
93 | O=c1ccc(O)ccc1O | 6.47 | 
94 | CC(=O)/C(CN1CCCCC1)=N\[O-] |  | 10.7
95 | O=C(O)/C=C\c1ccc(O)cc1 | 4.08 | 
96 | CC(C)CNCC(=O)c1ccc(O)cc1 |  | 7.74

Row | Compound | pKa (acidic group) | pKa (basic group)
97 | CCc1c(C)nn(-c2ccccc2)c1O | 11.5 | 
98 | O=[N+]([O-])c1ccc(O)c(O)c1 | 6.74 | 
99 | Cc1cc(Br)cc(Br)c1O | 7.6 | 
100 | CNc1ncnc2scnc12 |  | 2.84
101 | CNc1nc(C)nc2[nH]ncc12 | 11.3 | 5.56
102 | NC1(C(=O)[O-])CCCCC1 |  | 10
103 | O=[N+]([O-])c1ccc(-c2ncc(-c3ccccc3)o2)cc1 |  | -0.61
104 | CN(C)c1cccc([N+](=O)[O-])c1 |  | 2.58
105 | OCC[NH+](CCc1nnn[nH]1)CCc1nnn[nH]1 | 4.23 | 
106 | [O-]c1ccc2ccccc2n1 |  | 11.7
107 | c1cncc(-c2nc3ccccc3[nH]2)c1 | 11.2 | 4.53
108 | Cc1cc2nc[nH]c2cc1C | 12.5 | 6.04
109 | O=C(O)c1cc(-c2ccccc2)n[nH+]c1NCC[NH+]1CCOCC1 | 1.1 | 
110 | CCCC1CCCN1C (stereo not given) |  | 9.78
111 | O=C(O)C1(O)CCCCC1 | 4.18 | 
112 | NC(=O)CC(=O)c1cccnc1 |  | 8.61
113 | Cc1ccc(C(=O)NO)cc1 | 8.9 | 
114 | CCCCCOc1ccc(C(=O)O)cc1 | 4.49 | 
115 | CN1CCC(n2nc(-c3ccccc3)c(Cc3ccccc3)c2[O-])CC1 |  | 9.13
116 | CCCCCN(CC(O)CC)CC(O)CC (stereo not given) |  | 9.2
117 | CCN(CC)Cc1ccccc1O | 10.8 | 8.81
118 | CCCCCC(C)N (stereo not given) |  | 11.2
119 | COc1ccc2c(c1O)CN(C)CCc1cc3c(cc1C(=O)C2)OCO3 |  | 9
120 | NCC1CCCCC1 |  | 10.5

Row | Compound | pKa (acidic group) | pKa (basic group)
121 | c1ccc(CSc2ncn[nH]2)cc1 | 9.5 | 
122 | Cc1cccc(C)n1 |  | 6.85
123 | CCCCCCCC(=O)NO | 9.19 | 
124 | O=C(O)/C=C/C(=O)CC(=O)CC(=O)O | 3.6 | 
125 | Cc1ncnc2c(O)cccc12 | 8.75 | 2.9
126 | CCCSCC(=O)O | 3.77 | 
127 | C#CC(CC)(CC)N(C)C(C)C |  | 8.8
128 | CCN(CC)C(=S)S | 3.95 | 
129 | O=C(O)CS | 3.38 | 
130 | CCCCCCCCCCCC(=O)O | 4.89 | 
131 | CC(=O)c1cccc(N)c1 |  | 3.61
132 | NNC(=O)c1cc[nH+]cc1 |  | 1.67
133 | Cc1cc2c(cc1N)Sc1cc(N(C)C)ccc1N2 |  | 5.41
134 | O=C1CCC(C2CCCCC2)C(=O)C1 (stereo not given) | 5.5 | 
135 | C(=C\C[NH+]1CCCCC1)/CN1CCCCC1 |  | 7.9
136 | CNCCN(C)CCN |  | 10.2
137 | O=C(O)CCc1c[nH]c2ccccc12 | 4.87 | 
138 | COc1cc(O)ccc1C(=N)c1ccccc1 |  | 5.99
139 | COc1ccc(N)cc1C(=O)N[C@@H]1C[C@H]2CC[C@@H](C1)N2Cc1ccccc1 |  | 8.86
140 | Cc1nnc(C)c(C)n1 |  | 2.85
141 | Cc1cc(N)ccc1C[NH3+] |  | 4.26
142 | CCc1cc(C(=O)O)cs1 | 4.19 | 
143 | CC(C)c1cccc(C(=O)O)c1 | 4.27 | 
144 | Cn1ncc2ccccc21 |  | 0.51

Row | Compound | pKa (acidic group) | pKa (basic group)
145 | Cc1c[n+]([C@@H]2C[C@@H](O)[C@H](CO)O2)c(O)nc1N | 4.4 | 
146 | c1ccc(-c2cc3c(-c4ccccc4)ccnc3c3ncccc23)cc1 |  | 4.69
147 | N/N=C/c1ncnc2nc[nH]c12 |  | 9.2
148 | CC(O)c1ccccc1 (stereo not given) |  | -7
149 | Cc1cc(O)cc([N+](C)(C)C)c1 | 8.2 | 
150 | CC(C)(C)c1ccncc1 |  | 5.95
151 | C1CN2C(=N1)N1CCN=C1N1CCN=C21 |  | 5.8
152 | O=C(O)c1ccc(I)cc1 | 3.99 | 
153 | c1ccc(Nc2nccs2)cc1 |  | 4.33
154 | CCC1(C)OC(=O)NC1=O (stereo not given) | 6 | 
155 | O=C([O-])CC(c1ncc[nH]1)c1[nH]cc[nH+]1 |  | 4.62
156 | NC(=S)C(N)=S | 10.9 | 
157 | CC(C)SCC(=O)O | 3.72 | 
158 | N#CC(C#N)=NNc1ccccc1[N+](=O)[O-] | 5.8 | -0.76
159 | Cc1ccc(O)c(C)c1 | 10.6 | 
160 | Cc1ccc(NN=C(C#N)C#N)c([N+](=O)[O-])c1 | 6 | -0.78
161 | CNc1ncnc2nc[nH]c12 | 10 | 4.31
162 | CN(C)c1ccc(C(O)c2ccc(N(C)C)cc2)cc1 |  | 5.61
163 | CC(C)Oc1cccc(C(=O)O)c1 | 4.15 | 
164 | O=C(O)Cn1ncnn1 | 2.12 | 
165 | Oc1c2c(nn1-c1ccccc1)CCCC2 | 11.4 | 
166 | CC(C[NH3+])C(=O)O (stereo not given) | 3.53 | 
167 | C[n+]1ccsc1N | 9.65 | 
